Data on 3 molecules can be found in patent US9145376B2, “Quinazolinone inhibitors of dynein” (The Rockefeller University, priority 2011, dated 2015).

The test system of test [1] is mitotic spindle of Shh-EGFP (NIH-3T3) cells (cytoplasmic dynein 1). In words: Imaging of mitotic spindle assembly. In kind it is cell-based. Conditions: 50 μM, 60 minutes, MG132-arrested cells. The source says: In addition to trafficking macromolecules out of the primary cilium, cytoplasmic dynein complexes have other cellular functions. For example, cytoplasmic dynein 1 acts in concert with dynactin and the nuclear protein NuMA to crosslink and focus the minus ends of microtubules within the mitotic spindle. These actions create the canonical fusiform shape and localize γ-tubulin-containing, microtubule-nucleating complexes to the spindle poles. Cytoplasmic dynein 1 inhibition by blocking antibodies or dominant negative constructs disrupts mitotic spindle assembly, resulting in splayed microtubule ends and reduced γ-tubulin recruitment. To determine whether ciliobrevins can recapitulate these phenotypes, we treated a metaphase-enriched population of NIH-3T3 cells with 50 μM of either example 31 or […] for one hour and examined their mitotic structures by confocal immunofluorescence microscopy.
Shh-EGFP cells were cultured until they achieved approximately 70% confluency and then split 1:5 into 24-well plates containing, poly-D-lysine-coated 12-mm glass coverslips in DMEM containing 10% calf serum, 100 U/mL penicillin, and 0.1 mg/mL streptomycin. […]

The target in test [2] is T1, K560, N-terminal fragment of human conventional kinesin (kinesin-1) (Homo sapiens, UniProt P33176).
T1 construct: K560, a 560-amino acid N-terminal fragment of human conventional kinesin (kinesin-1); His-tag (C); made in house; host or cells: bacteria
T1 sequence (P33176 1-560): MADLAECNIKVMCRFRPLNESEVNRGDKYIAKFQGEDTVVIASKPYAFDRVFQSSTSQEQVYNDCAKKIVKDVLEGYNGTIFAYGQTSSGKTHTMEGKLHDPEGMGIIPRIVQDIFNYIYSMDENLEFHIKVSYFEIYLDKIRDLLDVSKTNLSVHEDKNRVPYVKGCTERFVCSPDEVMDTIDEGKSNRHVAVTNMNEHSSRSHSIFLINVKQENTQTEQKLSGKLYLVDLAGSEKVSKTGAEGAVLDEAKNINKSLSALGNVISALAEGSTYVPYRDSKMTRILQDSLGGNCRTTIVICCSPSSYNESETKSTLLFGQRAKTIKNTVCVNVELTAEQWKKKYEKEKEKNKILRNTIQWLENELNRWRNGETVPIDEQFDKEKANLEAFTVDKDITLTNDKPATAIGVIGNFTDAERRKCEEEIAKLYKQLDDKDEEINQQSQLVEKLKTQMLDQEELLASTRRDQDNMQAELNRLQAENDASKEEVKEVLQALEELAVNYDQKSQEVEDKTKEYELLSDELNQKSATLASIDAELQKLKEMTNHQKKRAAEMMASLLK
In words: Microtubule surface gliding assay, K560/kinesin-1. In kind it is biochemical. Particulars: 100 μM. Here is the method:
Cytoplasmic dynein was purified from bovine brains as described by Bingham et al. [Methods Enzymol. 298, 171 (1998)]. K560, a 560-amino acid N-terminal fragment of human conventional kinesin (kinesin-1) with a C-terminal His-tag, was expressed in bacteria and purified as described by Woehlke et al., [Cell 90, 207 (1997)]. Motility assays were performed on a Zeiss Axiovert 200M wide-field microscope equipped with a Zeiss 100×/1.45 NA α-Plan-Fluar objective. Data were captured with an EM-CCD camera (iXon DU-897, Andor Technology) with a 0.3-second exposure time and frame rate of 0.5 second^−1. Microtubule gliding assays were performed as described by Kapoor and Mitchison [Proc. Natl. Acad. Sci. U.S.A. 96, 9106 (1999)] with some modifications. An approximately 6 μL flow chamber was filled with motor protein (100 μg/mL dynein or 50 μg/mL K560) in motor dilution buffer (80 mM Pipes, 1 mM EGTA, 2 mM MgCl2, 2 mM DTT, 50 μM ATP, pH 6.8 with KOH). […] After allowing the microtubules to bind to the surface for 5 minutes, the gliding microtubules were visualized by time-lapse fluorescence microscopy. Velocities were measured by kymography using Metamorph software (Molecular Devices), and the velocity for each microtubule was determined from the total distance during the time observed.

As to `N#C/C(C(=O)c1ccccc1)=C1\NC(=O)c2ccccc2N1` [Example 16, 3-oxo-2-(4-oxo-3,4-dihydroquinazolin-2(1H)-ylidene)-3-phenylpropanenitrile], the “mitotic spindle morphology (γ-tubulin-positive pole focusing)” value in test [1] is reported as “normal spindle morphologies”. Regarding `N#C/C(C(=O)c1ccc(Cl)cc1Cl)=C1\NC(=O)c2ccccc2N1` [Example 1, 3-(2,4-dichlorophenyl)-3-oxo-2-(4-oxo-3,4-dihydroquinazolin-2(1H)-ylidene)propanenitrile], in test [2], the K560/kinesin-1-dependent microtubule gliding entry is given as “Neither ciliobrevin significantly affected”.

As for `N#C/C(C(=O)c1ccc(Cl)cc1Cl)=C1\NC(=O)c2ccc(Cl)cc2N1` [Example 31, 2-(7-chloro-4-oxo-3,4-dihydroquinazolin-2(1H)-ylidene)-3-(2,4-dichlorophenyl)-3-oxo-propanenitrile], the “mitotic spindle morphology (γ-tubulin-positive pole focusing)” value in test [1] was “failed to achieve mitotic spindles with focused γ-tubulin-positive poles”. Further, the K560/kinesin-1-dependent microtubule gliding entry in test [2] is on record as “Neither ciliobrevin significantly affected”.
